Experimental data from PubChem BioAssay AID1963830 (Molecular Pharmacology Branch, DTP, NCI, 2024).

Tested on: 922993-354-T-J3-PDC complex spheroid viability
Assay: Anticancer human tumor 922993-354-T-J3-PDC patient-derived endometrial carcinoma cell line growth inhibition [POLQ]
Details: for IC50: curve of first compound; for viability, T/C: stronger effect = lower value
Summary of the method: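 Three-cell-type spheroids modelling solid tumor plus stroma served as the readout system; POL inhibitors were tested individually and in combination, concentration ranges set by clinical Cmax where known.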

[1] = second compound 0.0316 µM, first compound 0.0316 µM
[2] = second compound 0.0316 µM, first compound 0.1 µM
[3] = second compound 0.0316 µM, first compound 0.316 µM
[4] = second compound 0.0316 µM, first compound 1 µM
[5] = second compound 0.1 µM, first compound 0.0316 µM
[6] = second compound 0.1 µM, first compound 0.1 µM
[7] = second compound 0.1 µM, first compound 0.316 µM
[8] = second compound 0.1 µM, first compound 1 µM
[9] = second compound 0.316 µM, first compound 0.0316 µM
[10] = second compound 0.316 µM, first compound 0.1 µM
[11] = second compound 0.316 µM, first compound 0.316 µM
[12] = second compound 0.316 µM, first compound 1 µM
[13] = second compound 1 µM, first compound 0.0316 µM
[14] = second compound 1 µM, first compound 0.1 µM
[15] = second compound 1 µM, first compound 0.316 µM
[16] = second compound 1 µM, first compound 1 µM
[17] = second compound 3.16 µM, first compound 0.0316 µM
[18] = second compound 3.16 µM, first compound 0.1 µM
[19] = second compound 3.16 µM, first compound 0.316 µM
[20] = second compound 3.16 µM, first compound 1 µM
[21] = second compound 10 µM, first compound 0.0316 µM
[22] = second compound 10 µM, first compound 0.1 µM
[23] = second compound 10 µM, first compound 0.316 µM
[24] = second compound 10 µM, first compound 1 µM
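Further: spheroids exposed to the agents for one week.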
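Wherever viability, T/C is given: 100% = DMSO vehicle control wells.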

SMILES: CCc1c2c(nc3ccc(O)cc13)-c1cc3c(c(=O)n1C2)COC(=O)[C@]3(O)CC + Nc1ccc(C#CCN(C(=O)Cc2ncc(C(F)(F)F)cc2C(F)(F)F)c2ccc(F)cc2)nn1
- IC50 (second compound 0.0316 µM): 27.9 nM
- IC50 (second compound 0.1 µM): 26.2 nM
- IC50 (second compound 0.316 µM): 31 nM
- IC50 (second compound 1 µM): 32.2 nM
- IC50 (second compound 3.16 µM): 22.1 nM
- IC50 (second compound 10 µM): 14.4 nM
- viability, T/C (second compound 0.0316 µM, first compound 0.00316 µM): 99%
- viability, T/C (second compound 0.0316 µM, first compound 0.01 µM): 91.1%
- viability, T/C [1]: 45.5%
- viability, T/C [2]: 20.1%
- viability, T/C [3]: 18.8%
- viability, T/C [4]: 26.7%
- viability, T/C (second compound 0.1 µM, first compound 0.00316 µM): 100%
- viability, T/C (second compound 0.1 µM, first compound 0.01 µM): 88.8%
- viability, T/C [5]: 43.3%
- viability, T/C [6]: 17.9%
- viability, T/C [7]: 19.8%
- viability, T/C [8]: 24.8%
- viability, T/C (second compound 0.316 µM, first compound 0.00316 µM): 104%
- viability, T/C (second compound 0.316 µM, first compound 0.01 µM): 92.2%
- viability, T/C [9]: 50.3%
- viability, T/C [10]: 20.3%
- viability, T/C [11]: 16.8%
- viability, T/C [12]: 26.6%
- viability, T/C (second compound 1 µM, first compound 0.00316 µM): 102%
- viability, T/C (second compound 1 µM, first compound 0.01 µM): 88.9%
- viability, T/C [13]: 52.4%
- viability, T/C [14]: 18.4%
- viability, T/C [15]: 17.7%
- viability, T/C [16]: 25.9%
- viability, T/C (second compound 3.16 µM, first compound 0.00316 µM): 95.6%
- viability, T/C (second compound 3.16 µM, first compound 0.01 µM): 76.3%
- viability, T/C [17]: 39.7%
- viability, T/C [18]: 17.4%
- viability, T/C [19]: 18.2%
- viability, T/C [20]: 27.7%
- viability, T/C (second compound 10 µM, first compound 0.00316 µM): 87%
- viability, T/C (second compound 10 µM, first compound 0.01 µM): 63.9%
- viability, T/C [21]: 16.1%
- viability, T/C [22]: 16.3%
- viability, T/C [23]: 20.1%
- viability, T/C [24]: 29.6%

SMILES: O=C(c1cc(Cc2n[nH]c(=O)c3ccccc23)ccc1F)N1CCN(C(=O)C2CC2)CC1 + Nc1ccc(C#CCN(C(=O)Cc2ncc(C(F)(F)F)cc2C(F)(F)F)c2ccc(F)cc2)nn1
- IC50 (second compound 0.0316 µM): > 10000 nM
- IC50 (second compound 0.1 µM): > 10000 nM
- IC50 (second compound 0.316 µM): > 10000 nM
- IC50 (second compound 1 µM): > 10000 nM
- IC50 (second compound 3.16 µM): > 10000 nM
- IC50 (second compound 10 µM): > 10000 nM
- viability, T/C [1]: 107%
- viability, T/C [2]: 97.6%
- viability, T/C [3]: 99.4%
- viability, T/C [4]: 101%
- viability, T/C (second compound 0.0316 µM, first compound 3.16 µM): 102%
- viability, T/C (second compound 0.0316 µM, first compound 10 µM): 96.7%
- viability, T/C [5]: 104%
- viability, T/C [6]: 103%
- viability, T/C [7]: 100%
- viability, T/C [8]: 98%
- viability, T/C (second compound 0.1 µM, first compound 3.16 µM): 101%
- viability, T/C (second compound 0.1 µM, first compound 10 µM): 95%
- viability, T/C [9]: 104%
- viability, T/C [10]: 99.5%
- viability, T/C [11]: 101%
- viability, T/C [12]: 101%
- viability, T/C (second compound 0.316 µM, first compound 3.16 µM): 102%
- viability, T/C (second compound 0.316 µM, first compound 10 µM): 97.1%
- viability, T/C [13]: 99%
- viability, T/C [14]: 105%
- viability, T/C [15]: 101%
- viability, T/C [16]: 96.2%
- viability, T/C (second compound 1 µM, first compound 3.16 µM): 100%
- viability, T/C (second compound 1 µM, first compound 10 µM): 100%
- viability, T/C [17]: 101%
- viability, T/C [18]: 100%
- viability, T/C [19]: 99.2%
- viability, T/C [20]: 98.6%
- viability, T/C (second compound 3.16 µM, first compound 3.16 µM): 97.5%
- viability, T/C (second compound 3.16 µM, first compound 10 µM): 101%
- viability, T/C [21]: 95.6%
- viability, T/C [22]: 96.9%
- viability, T/C [23]: 88.8%
- viability, T/C [24]: 91.9%
- viability, T/C (second compound 10 µM, first compound 3.16 µM): 94.2%
- viability, T/C (second compound 10 µM, first compound 10 µM): 90%
